# Measurements taken from patent EP0377521B1, “High yield sodium hydrosulfite generation” (MORTON INTERNATIONAL, INC., priority 1989, dated 1990).
# Assay: NaBH₄ hydrolysis half-life vs. pH
# Type: physicochemical
# Settings: for HALF-LIFE: hydrolysis
# Experimental: The pH flow profile becomes significant when related to the hydrolysis rate of the NaBH₄. Referring to the Table set forth below, the half-life of NaBH₄ is 3000 times longer at a pH of 6.0 compared to a pH of 2.5. Therefore, if the BOROL solution is added to a process stream having a pH of 2.5, the extent of the hydrolysis of the NaBH₄ is greater than if the BOROL solution and NaOH are added first to said process stream having a pH of 6.2 and the pH of said process stream is increased to 13.0, where the rate of hydrolysis of NaBH₄ is very slow (42.6 days). TABLE
# TEMPERATURE = 25°C (77°F) LOG₁₀ (t½ ) = pH - (0.034 T - 1.92) [formula] t = MINUTES T = °K
structure (smiles),measurement,setting,value
"[BH4-].[Na+] [NaBH₄, sodium borohydride]",HALF-LIFE,"pH 2.5, 25°C (77°F)",2e-06 min
same,HALF-LIFE,"pH 4.0, 25°C (77°F)",6.17e-05 min
same,HALF-LIFE,"pH 5.0, 25°C (77°F)",0.000617 min
same,HALF-LIFE,"pH 5.5, 25°C (77°F)",0.002 min
same,HALF-LIFE,"pH 6.0, 25°C (77°F)",0.00617 min
same,HALF-LIFE,"pH 6.5, 25°C (77°F)",0.02 min
same,HALF-LIFE,"pH 7.0, 25°C (77°F)",0.0617 min
same,HALF-LIFE,"pH 8.0, 25°C (77°F)",0.613 min
same,HALF-LIFE,"pH 9.0, 25°C (77°F)",6.1 min
same,HALF-LIFE,"pH 10.0, 25°C (77°F)",61 min
same,HALF-LIFE,"pH 12.0, 25°C (77°F)",6190 min
same,HALF-LIFE,"pH 13.0, 25°C (77°F)",61300 min
same,half-life at a pH of 6.0 compared to a pH of 2.5,"ratio of hydrolysis half-lives, pH 6.0 vs pH 2.5",3000 times longer
